Test results: patent publication EP4813991A1 (iLeadBMS Co., Ltd., priority 2023, dated 2025)
Where two headings read alike, the source gives them in different places.

How the values were obtained:
CDK13 = CDK13 (Homo sapiens, UniProt Q14004); experiment: CDK13 kinase inhibitory activity assay (33P-ATP filter binding); format: biochemical
Method: (§1) Before initiating the CDK12 and CDK13 kinase reactions, each Example compound was dissolved and diluted in DMSO as a solvent across 9 concentration ranges at room temperature. The diluted solutions were then incubated with a mixture of kinase and substrate (and cofactors, if required) for 20 minutes. Next, radioisotope-labeled ATP (^33P-gamma-ATP) was added to proceed with the kinase reaction at room temperature for 120 minutes. After the reaction was completed, the reaction mixture was transferred to a filter paper that binds the radioisotope-labeled catalytic product (^33P-substrate). Unreacted ^33P-ATP was removed by washing with 0.75 % phosphoric acid, and then the radioactive phosphorylated substrate remaining on the filter paper was measured. Kinase activity data were expressed as a percentage of the kinase activity remaining in the test sample compared to a DMSO control group. The half-maximal inhibitory concentration (IC50) for each kinase was calculated using Prism (Graphpad) software.

CDK12 [1] = target: T1, CDK12 (Homo sapiens, UniProt Q9NYV4); experiment: CDK12 kinase inhibitory activity assay (33P-ATP filter binding); format: biochemical
T1 sequence (Q9NYV4 whole entry, species assumed): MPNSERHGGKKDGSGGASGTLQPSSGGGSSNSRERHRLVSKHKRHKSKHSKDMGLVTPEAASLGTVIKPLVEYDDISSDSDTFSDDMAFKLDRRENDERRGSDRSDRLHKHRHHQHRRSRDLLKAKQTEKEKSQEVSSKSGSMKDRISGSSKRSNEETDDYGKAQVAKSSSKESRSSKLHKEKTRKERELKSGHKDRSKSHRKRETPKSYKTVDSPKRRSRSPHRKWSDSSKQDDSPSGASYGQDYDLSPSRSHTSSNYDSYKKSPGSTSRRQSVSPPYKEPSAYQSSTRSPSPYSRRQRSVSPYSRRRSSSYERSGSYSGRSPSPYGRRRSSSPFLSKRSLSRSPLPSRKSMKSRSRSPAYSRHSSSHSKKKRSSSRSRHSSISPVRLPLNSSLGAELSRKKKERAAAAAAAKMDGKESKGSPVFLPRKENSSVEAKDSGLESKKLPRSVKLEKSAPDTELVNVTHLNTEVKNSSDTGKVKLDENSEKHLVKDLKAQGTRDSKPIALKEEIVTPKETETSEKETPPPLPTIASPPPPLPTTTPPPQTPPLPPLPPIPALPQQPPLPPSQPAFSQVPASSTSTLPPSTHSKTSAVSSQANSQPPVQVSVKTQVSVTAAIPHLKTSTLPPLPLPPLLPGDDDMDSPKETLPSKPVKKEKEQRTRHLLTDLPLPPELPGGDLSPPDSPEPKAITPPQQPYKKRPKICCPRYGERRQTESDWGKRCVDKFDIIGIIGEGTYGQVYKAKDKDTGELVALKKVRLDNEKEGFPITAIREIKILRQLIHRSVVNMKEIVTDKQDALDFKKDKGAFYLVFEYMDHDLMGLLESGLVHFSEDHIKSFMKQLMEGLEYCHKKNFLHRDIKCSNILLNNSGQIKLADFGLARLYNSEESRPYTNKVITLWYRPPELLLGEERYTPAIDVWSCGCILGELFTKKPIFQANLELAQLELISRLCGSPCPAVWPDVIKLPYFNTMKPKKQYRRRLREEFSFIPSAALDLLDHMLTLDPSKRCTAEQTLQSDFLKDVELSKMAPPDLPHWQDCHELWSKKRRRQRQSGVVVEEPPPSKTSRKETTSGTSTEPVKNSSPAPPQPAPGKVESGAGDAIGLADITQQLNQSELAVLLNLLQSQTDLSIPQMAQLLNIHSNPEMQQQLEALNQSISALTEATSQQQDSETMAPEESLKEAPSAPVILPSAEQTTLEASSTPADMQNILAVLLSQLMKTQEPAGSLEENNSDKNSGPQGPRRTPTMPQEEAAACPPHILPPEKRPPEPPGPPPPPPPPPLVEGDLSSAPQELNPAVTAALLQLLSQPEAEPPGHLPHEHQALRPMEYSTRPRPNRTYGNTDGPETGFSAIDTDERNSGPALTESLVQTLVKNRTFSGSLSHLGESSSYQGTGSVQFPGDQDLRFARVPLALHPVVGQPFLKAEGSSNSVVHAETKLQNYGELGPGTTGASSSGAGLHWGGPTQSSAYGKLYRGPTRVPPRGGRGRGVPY
T1 sequence (O75909 whole entry partner, species assumed): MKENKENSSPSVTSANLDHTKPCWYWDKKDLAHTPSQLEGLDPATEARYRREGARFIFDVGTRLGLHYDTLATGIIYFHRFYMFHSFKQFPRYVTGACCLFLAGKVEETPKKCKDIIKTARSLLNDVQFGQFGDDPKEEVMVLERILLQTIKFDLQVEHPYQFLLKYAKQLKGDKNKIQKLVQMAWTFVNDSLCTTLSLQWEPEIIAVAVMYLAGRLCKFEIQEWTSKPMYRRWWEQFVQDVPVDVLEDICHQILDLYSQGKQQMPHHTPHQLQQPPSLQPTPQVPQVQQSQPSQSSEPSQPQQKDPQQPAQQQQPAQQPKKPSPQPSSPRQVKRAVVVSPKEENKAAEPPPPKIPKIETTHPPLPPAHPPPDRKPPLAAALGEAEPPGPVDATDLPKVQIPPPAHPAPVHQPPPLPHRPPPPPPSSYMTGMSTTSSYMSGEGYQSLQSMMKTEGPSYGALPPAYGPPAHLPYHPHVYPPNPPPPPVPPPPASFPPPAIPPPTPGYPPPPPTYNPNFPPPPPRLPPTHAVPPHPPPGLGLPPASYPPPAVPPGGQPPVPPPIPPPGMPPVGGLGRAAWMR
Method: as §1

[2] = system: MDA-MB-231 breast cancer cells; experiment: Proliferation inhibitory activity assay against MDA-MB-231 breast cancer cells; format: cell-based; settings: Homo sapiens, 72 hours, CellTiter Glo, relative IC50
Method: Experiments were performed using the MDA-MB-231 breast cancer cell line to measure the cell proliferation inhibitory ability of each Example compound. MDA-MB-231 cells were dispensed into a 96-well plate at 100 µL of cell suspension per well using L-15 (Invitrogen) medium containing 10 % FBS, followed by incubation in a cell incubator at 37 °C and 0 % CO2. The next day, each Example compound dissolved and diluted in DMSO across 9 concentration ranges and a DMSO control group were treated on the cells for 72 hours. After the compound treatment was completed, 100 µL of CellTiter Glo (Promega) reagent was added to each well of the 96-well plate, followed by shaking for 10 minutes and standing at room temperature for 10 minutes. Luminescence signals were measured after inserting the 96-well plate into an Envision plate reader (PerkinElmer). Relative IC50 values were calculated by fitting a dose-response curve using XLfit (IDBS Ltd) software.
The breast cancer cell proliferation inhibitory activities of the Example compounds measured by the above method were evaluated according to the following criteria, and the results are presented in Table 13.

CDK12 [3] = target: T1, CDK12; experiment: Cellular CDK12 inhibitory activity assay (Ser2 phosphorylation of RNA polymerase II subunit B1 CTD in MDA-MB-231 cells); format: cell-based; set-up: using MDA-MB-231 breast cancer cells; endogenous in cells; host or cells: MDA-MB-231; settings: MDA-MB-231 cells, 6 hours treatment; read-out: pRpbl CTD S2 IC50
Method: MDA-MB-231 cells were dispensed into a 96-well plate at 100 µL of cell suspension per well using L-15 (Invitrogen) medium containing 10 % FBS, followed by overnight incubation in a cell incubator at 37 °C and 0 % CO2. The next day, each Example compound dissolved in DMSO across 9 concentration ranges and a DMSO control group were treated on the MDA-MB-231 cells at 37 °C and 0 % CO2 for 6 hours. After the compound treatment, the medium in the 96-well plate was removed, and 60 µL of a fixing solution (4.0 % paraformaldehyde in PBS) was added to each well, followed by standing for 20 minutes. After removing the fixing solution and washing with PBS, 60 µL of PBS containing 0.1 % Triton X-100 was dispensed into each well, followed by shaking at room temperature for 15 minutes. After washing with PBS, 100 µL of blocking buffer was added, followed by shaking at room temperature for 1 hour. After removing the blocking buffer, primary antibodies, which are RNA polymerase II subunit B1 phospho-Ser2 (1:500, Cell signaling technology) and RNA polymerase II subunit B1 carboxy-terminal domain (1:200, Cell signaling technology), were added at 60 µL per well and reacted overnight at 4 °C. After adding 150 µL of PBS containing 0.1 % Triton X-100 and washing at least twice by shaking at room temperature for 5 minutes, 60 µL of a secondary antibody was added, followed by shaking at room temperature for 1 hour while blocking light. After adding 150 µL of PBS containing 0.1 % Triton X-100 and washing at least twice by shaking at room temperature for 5 minutes, 150 µL of PBS was added again, followed by washing at least twice by shaking at room temperature for 5 minutes. The plate was scanned using a Li-COR Odyssey machine with the wells filled with PBS. IC50 values were calculated by fitting a dose-response curve using a 4-parameter model of Prism (Graphpad) software.

[4] = kinase reaction 120 minutes, 33P-gamma-ATP, read-out: CDK13 IC50
[5] = kinase reaction 120 minutes, 33P-gamma-ATP, read-out: CDK12 IC50

Sequence of CDK13 (Q14004 whole entry, species assumed): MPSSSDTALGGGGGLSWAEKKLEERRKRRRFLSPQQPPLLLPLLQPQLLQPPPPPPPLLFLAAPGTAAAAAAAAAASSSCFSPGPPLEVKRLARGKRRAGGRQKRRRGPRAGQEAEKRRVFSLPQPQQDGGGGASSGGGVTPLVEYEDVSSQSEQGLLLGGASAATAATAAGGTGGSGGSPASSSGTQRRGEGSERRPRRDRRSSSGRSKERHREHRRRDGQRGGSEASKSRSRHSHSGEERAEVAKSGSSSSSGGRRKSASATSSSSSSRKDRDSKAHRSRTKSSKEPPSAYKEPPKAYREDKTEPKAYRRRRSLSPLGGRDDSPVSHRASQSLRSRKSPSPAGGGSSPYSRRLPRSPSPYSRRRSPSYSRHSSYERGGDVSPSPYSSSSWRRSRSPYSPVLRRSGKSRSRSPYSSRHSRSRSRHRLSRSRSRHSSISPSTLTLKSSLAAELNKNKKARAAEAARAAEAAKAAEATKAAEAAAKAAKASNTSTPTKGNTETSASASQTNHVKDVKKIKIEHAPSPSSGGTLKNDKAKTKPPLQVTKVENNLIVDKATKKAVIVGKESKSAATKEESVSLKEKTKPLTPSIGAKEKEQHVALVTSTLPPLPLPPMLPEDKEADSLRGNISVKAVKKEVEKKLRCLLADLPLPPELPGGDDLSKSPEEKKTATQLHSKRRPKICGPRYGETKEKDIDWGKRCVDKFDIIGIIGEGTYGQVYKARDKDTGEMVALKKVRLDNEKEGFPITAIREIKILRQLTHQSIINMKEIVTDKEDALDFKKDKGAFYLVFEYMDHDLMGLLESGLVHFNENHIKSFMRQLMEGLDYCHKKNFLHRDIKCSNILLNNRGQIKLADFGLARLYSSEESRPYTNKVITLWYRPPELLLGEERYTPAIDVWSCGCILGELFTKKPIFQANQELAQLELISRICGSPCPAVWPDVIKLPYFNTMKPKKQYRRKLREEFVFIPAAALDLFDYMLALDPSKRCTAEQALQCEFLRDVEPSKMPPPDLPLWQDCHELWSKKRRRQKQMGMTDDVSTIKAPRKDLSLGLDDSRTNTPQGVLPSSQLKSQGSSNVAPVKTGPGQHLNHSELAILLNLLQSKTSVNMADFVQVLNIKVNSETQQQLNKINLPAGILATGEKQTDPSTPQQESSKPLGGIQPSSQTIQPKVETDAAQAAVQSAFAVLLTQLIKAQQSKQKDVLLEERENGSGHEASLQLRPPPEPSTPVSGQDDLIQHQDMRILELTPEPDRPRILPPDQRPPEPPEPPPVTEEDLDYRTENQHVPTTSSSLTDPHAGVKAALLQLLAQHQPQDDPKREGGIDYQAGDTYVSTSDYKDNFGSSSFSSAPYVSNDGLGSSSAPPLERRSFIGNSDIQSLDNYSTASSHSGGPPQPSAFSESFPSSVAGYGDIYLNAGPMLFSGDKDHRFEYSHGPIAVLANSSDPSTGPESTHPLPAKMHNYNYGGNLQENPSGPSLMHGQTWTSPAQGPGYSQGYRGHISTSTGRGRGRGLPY
Sequence of CDK13 (O75909 whole entry partner, species assumed): as the sequence (O75909 whole entry partner, species assumed) above

| Structure (SMILES) | IC50 (CDK13; [4]) [nM] | IC50 (CDK12 [1]; [5]) [nM] | IC50 [2] [nM] | IC50 (CDK12 [3]) [nM] | IC50 (CDK12 [1]) [nM] | IC50 (CDK13) [nM] |
| --- | --- | --- | --- | --- | --- | --- |
| FC(F)(F)c1cc2nc(CNc3cc(N4CCOCC4)nn4c(C(F)(F)F)cnc34)[nH]c2cc1C(F)(F)F [Example 81, N-((5,6-bis(trifluoromethyl)-1H-benzo[d]imidazol-2-yl)methyl)-6-morpholino-3-(trifluoromethyl)imidazo[1,2-b]pyridazin-8-amine] | 100 to 500 | > 500 | 50 to 500 | 300 to 3000 | – | – |
| NC1CCN(c2cc(NCc3nc4cc(F)c(F)cc4[nH]3)c3ncc(C(F)(F)F)n3n2)CC1 [Example 111, 6-(4-aminopiperidin-1-yl)-N-((5,6-difluoro-1H-benzo[d]imidazol-2-yl)methyl)-3-(trifluoromethyl)imidazo[1,2-b]pyridazin-8-amine] | < 100 | < 100 | ≤ 50 | < 300 | – | – |
| FC(F)(F)c1cnc2c(NCc3nc4cc(Cl)c(Cl)cc4[nH]3)cc(N3CC4CCC(C3)N4)nn12 [Example 94, 6-(3,8-diazabicyclo[3.2.1]octan-3-yl)-N-((5,6-dichloro-1H-benzo[d]imidazol-2-yl)methyl)-3-(trifluoromethyl)imidazo[1,2-b]pyridazin-8-amine] | < 100 | < 100 | ≤ 50 | < 300 | – | – |
| FC(F)(F)c1cnc2c(NCc3nc4ccncc4[nH]3)cc(N3CCOCC3)nn12 [Example 74, N-((3H-imidazo[4,5-c]pyridin-2-yl)methyl)-6-morpholino-3-(trifluoromethyl)imidazo[1,2-b]pyridazin-8-amine] | < 100 | < 100 | 50 to 500 | 300 to 3000 | – | – |
| CN1CCN(c2cc(NCc3nc4cc(F)c(F)cc4[nH]3)c3ncc(C(F)(F)F)n3n2)CC1 [Example 110, N-((5,6-difluoro-1H-benzo[d]imidazol-2-yl)methyl)-6-(4-methylpiperazin-1-yl)-3-(trifluoromethyl)imidazo[1,2-b]pyridazin-8-amine] | < 100 | < 100 | ≤ 50 | < 300 | – | – |
| CN1C2CCC1CN(c1cc(NCc3nc4cc(Cl)c(Cl)cc4[nH]3)c3ncc(C(F)(F)F)n3n1)C2 [Example 33] | < 100 | < 100 | ≤ 50 | < 300 | – | – |
| FC(F)(F)c1cnc2c(NCc3nc4cc(Cl)c(Cl)cc4[nH]3)cc(N3CC4CC(C3)N4)nn12 [Example 97, 6-(3,6-diazabicyclo[3.1.1]heptan-3-yl)-N-((5,6-dichloro-1H-benzo[d]imidazol-2-yl)methyl)-3-(trifluoromethyl)imidazo[1,2-b]pyridazin-8-amine] | < 100 | < 100 | ≤ 50 | < 300 | – | – |
| N#CC1(O)CCN(c2cc(NCc3nc4cc(Cl)c(Cl)cc4[nH]3)c3ncc(C(F)(F)F)n3n2)C1 (stereo not shown) [Example 61, 1-(8-(((5,6-dichloro-1H-benzo[d]imidazol-2-yl)methyl)amino)-3-(trifluoromethyl)imidazo[1,2-b]pyridazin-6-yl)-3-hydroxypyrrolidine-3-carbonitrile] | 100 to 500 | 100 to 500 | ≤ 50 | < 300 | – | – |
| FC(F)(F)c1cnc2c(NCc3nc4cc(Cl)c(Cl)cc4[nH]3)cc(N3CC4CCC3CO4)nn12 (stereo not shown) [Example 43, 6-(2-oxa-5-azabicyclo[2.2.2]octan-5-yl)-N-((5,6-dichloro-1H-benzo[d]imidazol-2-yl)methyl)-3-(trifluoromethyl)imidazo[1,2-b]pyridazin-8-amine] | 100 to 500 | 100 to 500 | 50 to 500 | 300 to 3000 | – | – |
| Fc1ccc2nc(CNc3cc(N4CCOCC4)nn4c(Cl)cnc34)[nH]c2c1F [Example 27, 3-chloro-N-((6,7-difluoro-1H-benzo[d]imidazol-2-yl)methyl)-6-morpholinoimidazo[1,2-b]pyridazin-8-amine] | > 500 | – | > 500 | > 3000 | > 500 | – |
| N#CC1CCN(c2cc(NCc3nc4ccc(F)c(F)c4[nH]3)c3ncc(C(F)(F)F)n3n2)CC1 [Example 56, 1-(8-(((6,7-difluoro-1H-benzo[d]imidazol-2-yl)methyl)amino)-3-(trifluoromethyl)imidazo[1,2-b]pyridazin-6-yl)piperidine-4-carbonitrile] | < 100 | < 100 | ≤ 50 | 300 to 3000 | – | – |
| CN1C2CC1CN(c1cc(NCc3nc4cc(Cl)c(Cl)cc4[nH]3)c3ncc(C(F)(F)F)n3n1)C2 [Example 98, N-((5,6-dichloro-1H-benzo[d]imidazol-2-yl)methyl)-6-(6-methyl-3,6-diazabicyclo[3.1.1]heptan-3-yl)-3-(trifluoromethyl)imidazo[1,2-b]pyridazin-8-amine] | < 100 | < 100 | ≤ 50 | < 300 | – | – |
| CC(C)c1cnc2c(NCc3nc4ccc(F)c(F)c4[nH]3)cc(N3CCOCC3)nn12 [Example 3, N-((6,7-difluoro-1H-benzo[d]imidazol-2-yl)methyl)-3-isopropyl-6-morpholinoimidazo[1,2-b]pyridazin-8-amine] | – | > 500 | 50 to 500 | 300 to 3000 | – | 100 to 500 |
| CC1(O)CC2CCC(C1)N2c1cc(NCc2nc3cc(Cl)c(Cl)cc3[nH]2)c2ncc(C(F)(F)F)n2n1 (stereo not shown) [Example 34] | 100 to 500 | – | 50 to 500 | < 300 | > 500 | – |
| O=C(O)C1CN(c2cc(NCc3nc4cc(Cl)c(Cl)cc4[nH]3)c3ncc(C(F)(F)F)n3n2)C1 [Example 64, 1-(8-(((5,6-dichloro-1H-benzo[d]imidazol-2-yl)methyl)amino)-3-(trifluoromethyl)imidazo[1,2-b]pyridazin-6-yl)azetidine-3-carboxylic acid] | < 100 | 100 to 500 | > 500 | > 3000 | – | – |
| NC(=O)C1CCN(c2cc(NCc3nc4cc(Cl)c(Cl)cc4[nH]3)c3ncc(C(F)(F)F)n3n2)CC1 [Example 67, 1-(8-(((5,6-dichloro-1H-benzo[d]imidazol-2-yl)methyl)amino)-3-(trifluoromethyl)imidazo[1,2-b]pyridazin-6-yl)piperidine-4-carboxamide] | < 100 | < 100 | 50 to 500 | < 300 | – | – |
| C#Cc1cnc2c(NCc3nc4ccc(F)c(F)c4[nH]3)cc(N3CCOCC3)nn12 [Example 1, N-((6,7-difluoro-1H-benzo[d]imidazol-2-yl)methyl)-3-ethynyl-6-morpholinoimidazo[1,2-b]pyridazin-8-amine] | – | 100 to 500 | 50 to 500 | 300 to 3000 | – | < 100 |
| CC#Cc1cnc2c(NCc3nc4ccc(F)c(F)c4[nH]3)cc(N3CCOCC3)nn12 [Example 24, N-((6,7-difluoro-1H-benzo[d]imidazol-2-yl)methyl)-6-morpholino-3-(prop-1-yn-1-yl)imidazo[1,2-b]pyridazin-8-amine] | 100 to 500 | > 500 | > 500 | > 3000 | – | – |
| CCc1cnc2c(NCc3nc4ccc(F)c(F)c4[nH]3)cc(N3CCOCC3)nn12 [Example 5, N-((6,7-difluoro-1H-benzo[d]imidazol-2-yl)methyl)-3-ethyl-6-morpholinoimidazo[1,2-b]pyridazin-8-amine] | < 100 | 100 to 500 | 50 to 500 | 300 to 3000 | – | – |
